43 molecules from patent publication US5543415A, “Antidepressants” (Kyowa Hakko Kogyo Co., Ltd., priority 1992, dated 1996) can be followed below.

In this series the test system is ddY-strain male mice. Kind of series: Acute Toxicity Test (minimum lethal dose, oral). The class given is in vivo. The following applies: seven days after administration. As to the method: Test compounds were orally administered to groups of ddY-strain male mice weighing 20±1 g, each group consisting of three mice. Seven days after the administration, minimum lethal dose (MLD) of each compound was determined by observing the mortality.
Take `CCn1c(=O)c2[nH]c(/C=C/c3ccc(OC)c(OC)c3Cl)nc2n(CC)c1=O` [Compound 105, (E)-8-(2-Chloro-3,4-dimethoxystyryl)-1,3-diethylxanthine]: the “MLD (minimum lethal dose)” value is over 100 mg/kg. As to `CCn1c(=O)c2c(nc(/C=C/c3ccc(OC)c(OC)c3Cl)n2C)n(CC)c1=O` [Compound 106, (E)-8-(2-Chloro-3,4-dimethoxystyryl)-1,3-diethyl-7-methylxanthine], the “MLD (minimum lethal dose)” value is recorded as over 300 mg/kg.

As to `COc1ccc(/C=C/c2nc3c([nH]2)c(=O)n(C)c(=O)n3C)c(Cl)c1OC` [Compound 107, (E)-8-(2-Chloro-3,4-dimethoxystyryl)theophylline], the “MLD (minimum lethal dose)” value is recorded as over 100 mg/kg. `COc1ccc(/C=C/c2nc3c(c(=O)n(C)c(=O)n3C)n2C)c(Cl)c1OC` [Compound 108, (E)-8-(2-Chloro-3,4-dimethoxystyryl)caffeine]: the “MLD (minimum lethal dose)” value is on record as over 300 mg/kg. With `CCn1c(=O)c2[nH]c(/C=C/c3cc(C)ccc3C)nc2n(CC)c1=O` [Compound 109, (E)-8-(2,5-Dimethylstyryl)-1,3-diethylxanthine], the “MLD (minimum lethal dose)” value was over 300 mg/kg. Regarding `CCn1c(=O)c2c(nc(/C=C/c3cc(C)ccc3C)n2C)n(CC)c1=O` [Compound 110, (E)-8-(2,5-Dimethylstyryl)-1,3-diethyl-7-methylxanthine], the “MLD (minimum lethal dose)” value was over 300 mg/kg.

`CCn1c(=O)c2[nH]c(/C=C/c3ccc(F)c(F)c3)nc2n(CC)c1=O` [Compound 111, (E)-8-(3,4-Difluorostyryl)-1,3-diethylxanthine]: the “MLD (minimum lethal dose)” value is over 300 mg/kg. Consider `CCn1c(=O)c2c(nc(/C=C/c3ccc(F)c(F)c3)n2C)n(CC)c1=O` [Compound 112, (E)-8-(3,4-Difluorostyryl)-1,3-diethyl-7-methylxanthine], for which the “MLD (minimum lethal dose)” value is recorded as over 300 mg/kg. Turning to `CCn1c(=O)c2[nH]c(/C=C/c3ccc(OC)c(Br)c3)nc2n(CC)c1=O` [Compound 113, (E)-8-(3-Bromo-4-methoxystyryl)-1,3-diethylxanthine], the “MLD (minimum lethal dose)” value is reported as over 100 mg/kg.

As for `COc1ccc(/C=C/c2nc3c([nH]2)c(=O)n(C)c(=O)n3C)cc1Br` [Compound 115, (E)-8-(3-Bromo-4-methoxystyryl)theophylline], the “MLD (minimum lethal dose)” value was over 100 mg/kg.

For `COc1ccc(/C=C/c2nc3c(c(=O)n(C)c(=O)n3C)n2C)cc1Br` [Compound 116, (E)-8-(3-Bromo-4-methoxystyryl)caffeine], the “MLD (minimum lethal dose)” value is over 300 mg/kg. With `CCn1c(=O)c2[nH]c(/C=C/c3cc(OC)c(OC)cc3Br)nc2n(CC)c1=O` [Compound 117, (E)-8-(2-Bromo-4,5-dimethoxystyryl)-1,3-diethylxanthine], the “MLD (minimum lethal dose)” value is given as over 100 mg/kg. With `CCn1c(=O)c2c(nc(/C=C/c3cc(OC)c(OC)cc3Br)n2C)n(CC)c1=O` [Compound 118, (E)-8-(2-Bromo-4,5-dimethoxystyryl)-1,3-diethyl-7-methylxanthine], the “MLD (minimum lethal dose)” value is over 100 mg/kg. `CCn1c(=O)c2[nH]c(/C=C/c3cc(OC)c(OC)cc3[N+](=O)[O-])nc2n(CC)c1=O` [Compound 119, (E)-8-(4,5-Dimethoxy-2-nitrostyryl)-1,3-diethylxanthine]: the “MLD (minimum lethal dose)” value is over 100 mg/kg.

As to `CCn1c(=O)c2c(nc(/C=C/c3cc(OC)c(OC)cc3[N+](=O)[O-])n2C)n(CC)c1=O` [Compound 120, (E)-8-(4,5-Dimethoxy-2-nitrostyryl)-1,3-diethyl-7-methylxanthine], the “MLD (minimum lethal dose)” value is given as over 300 mg/kg. With `CCn1c(=O)c2[nH]c(/C=C/c3cccc(OC)c3[N+](=O)[O-])nc2n(CC)c1=O` [Compound 121, (E)-1,3-Diethyl-8-(3-methoxy-2-nitrostyryl)xanthine], the “MLD (minimum lethal dose)” value is given as over 300 mg/kg. Next, `CCn1c(=O)c2c(nc(/C=C/c3cccc(OC)c3[N+](=O)[O-])n2C)n(CC)c1=O` [Compound 122, (E)-1,3-Diethyl-8-(3-methoxy-2-nitrostyryl)-7-methyl-xanthine]: over 100 mg/kg. Next, `CCOc1ccc(/C=C/c2nc3c([nH]2)c(=O)n(CC)c(=O)n3CC)cc1` [Compound 123, (E)-8-(4-Ethoxystyryl)-1,3-diethylxanthine]: over 100 mg/kg; `CCCOc1ccc(/C=C/c2nc3c([nH]2)c(=O)n(CC)c(=O)n3CC)cc1` [Compound 125, (E)-1,3-Diethyl-8-(4-propoxystyryl)xanthine]: over 100 mg/kg. Next, `CCn1c(=O)c2[nH]c(/C=C/c3cccc(F)c3)nc2n(CC)c1=O` [Compound 127, (E)-1,3-Diethyl-8-(3-fluorostyryl)xanthine]: over 100 mg/kg. As for `CCn1c(=O)c2c(nc(/C=C/c3cccc(F)c3)n2C)n(CC)c1=O` [Compound 128, (E)-1,3-Diethyl-8-(3-fluorostyryl)-7-methylxanthine], the “MLD (minimum lethal dose)” value was over 300 mg/kg. Turning to `CCn1c(=O)c2[nH]c(/C=C/c3cc(OC)cc(OC)c3)nc2n(CC)c1=O` [Compound 129, (E)-8-(3,5-Dimethoxystyryl)-1,3-diethylxanthine], the “MLD (minimum lethal dose)” value is over 100 mg/kg. `CCn1c(=O)c2[nH]c(/C=C/c3cccc(Cl)c3)nc2n(CC)c1=O` [Compound 131, (E)-8-(3-Chlorostyryl)-1,3-diethylxanthine]: the “MLD (minimum lethal dose)” value is over 100 mg/kg. In the case of `CCn1c(=O)c2c(nc(/C=C/c3cccc(Cl)c3)n2C)n(CC)c1=O` [Compound 132, (E)-8-(3-Chlorostyryl)-1,3-diethyl-7-methylxanthine], the “MLD (minimum lethal dose)” value was over 300 mg/kg. Regarding `CCn1c(=O)c2[nH]c(/C(C)=C/c3ccccc3)nc2n(CC)c1=O` [Compound 133, (E)-1,3-Diethyl-8-(α-methylstyryl)xanthine], the “MLD (minimum lethal dose)” value is given as over 100 mg/kg. With `CCn1c(=O)c2c(nc(/C(C)=C/c3ccccc3)n2C)n(CC)c1=O` [Compound 134, (E)-1,3-Diethyl-7-methyl-8-(α-methylstyryl)xanthine], the “MLD (minimum lethal dose)” value is on record as over 300 mg/kg. In the case of `CCn1c(=O)c2[nH]c(/C=C/c3ccc(C(F)(F)F)cc3)nc2n(CC)c1=O` [Compound 135, (E)-1,3-Diethyl-8-(4-trifluoromethylstyryl)xanthine], the “MLD (minimum lethal dose)” value is given as over 100 mg/kg. Next, `CCn1c(=O)c2c(nc(/C=C/c3ccc(C(F)(F)F)cc3)n2C)n(CC)c1=O` [Compound 136, (E)-1,3-Diethyl-7-methyl-8-(4-trifluoromethylstyryl)xanthine]: over 300 mg/kg; `CCn1c(=O)c2[nH]c(/C=C/c3cccc(OC)c3)nc2n(CC)c1=O` [Compound 139, (E)-1,3-Diethyl-8-(3-methoxystyryl)xanthine]: over 100 mg/kg; `CCn1c(=O)c2c(nc(/C=C/c3cccc(OC)c3)n2C)n(CC)c1=O` [Compound 140, (E)-1,3-Diethyl-8-(3-methoxystyryl)-7-methylxanthine]: over 300 mg/kg. Regarding `CCn1c(=O)c2[nH]c(/C=C/c3ccc(Br)cc3)nc2n(CC)c1=O` [Compound 141, (E)-8-(4-Bromostyryl)-1,3-diethylxanthine], the “MLD (minimum lethal dose)” value is over 100 mg/kg. In the case of `CCn1c(=O)c2c(nc(/C=C/c3ccc(Br)cc3)n2C)n(CC)c1=O` [Compound 142, (E)-8-(4-Bromostyryl)-1,3-diethyl-7-methylxanthine], the “MLD (minimum lethal dose)” value is reported as over 100 mg/kg.

Regarding `CCn1c(=O)c2[nH]c(/C=C/c3cccc(OC(F)(F)F)c3)nc2n(CC)c1=O` [Compound 143, (E)-1,3-Diethyl-8-(3-trifluoromethoxystyryl)xanthine], the “MLD (minimum lethal dose)” value was over 100 mg/kg. With `CCn1c(=O)c2c(nc(/C=C/c3cccc(OC(F)(F)F)c3)n2C)n(CC)c1=O` [Compound 144, (E)-1,3-Diethyl-7-methyl-8-(3-trifluoromethoxystyryl)xanthine], the “MLD (minimum lethal dose)” value was over 100 mg/kg. `CCn1c(=O)c2[nH]c(/C=C/c3ccc(OCOC)cc3)nc2n(CC)c1=O` [Compound 145, (E)-1,3-Diethyl-8-(4-methoxymethoxystyryl)xanthine]: the “MLD (minimum lethal dose)” value was over 100 mg/kg.

As to `CCn1c(=O)c2c(nc(/C=C/c3ccc(OCOC)cc3)n2C)n(CC)c1=O` [Compound 146, (E)-1,3-Diethyl-8-(4-methoxymethoxystyryl)-7-methylxanthine], the “MLD (minimum lethal dose)” value was over 100 mg/kg. Next, `CCCCOc1ccc(/C=C/c2nc3c([nH]2)c(=O)n(CC)c(=O)n3CC)cc1` [Compound 147, (E)-8-(4-Butoxystyryl)-1,3-diethylxanthine]: over 100 mg/kg.

Take `CCn1c(=O)c2[nH]c(/C=C/c3ccc(F)cc3)nc2n(CC)c1=O` [Compound 149, (E)-1,3-Diethyl-8-(4-fluorostyryl)xanthine]: the “MLD (minimum lethal dose)” value is given as over 100 mg/kg.

Take `CCn1c(=O)c2[nH]c(/C=C/c3ccc(C)cc3)nc2n(CC)c1=O` [Compound 151, (E)-1,3-Diethyl-8-(4-methylstyryl)xanthine]: the “MLD (minimum lethal dose)” value was over 100 mg/kg. Regarding `CCn1c(=O)c2[nH]c(/C=C/c3cc(C(F)(F)F)cc(C(F)(F)F)c3)nc2n(CC)c1=O` [Compound 153, (E)-8-[3,5-Bis(trifluoromethyl)styryl]-1,3-diethylxanthine], the “MLD (minimum lethal dose)” value is given as over 100 mg/kg. `CCn1c(=O)c2c(nc(/C=C/c3cc(C(F)(F)F)cc(C(F)(F)F)c3)n2C)n(CC)c1=O` [Compound 154, (E)-8-[3,5-Bis (trifluoromethyl)styryl]-1,3-diethyl-7-methylxanthine]: the “MLD (minimum lethal dose)” value is on record as over 100 mg/kg.

In the case of `CCn1c(=O)c2[nH]c(/C=C/c3cc(F)cc(F)c3)nc2n(CC)c1=O` [Compound 155, (E)-8-(3,5-Difluorostyryl)-1,3-diethylxanthine], the “MLD (minimum lethal dose)” value was over 100 mg/kg. As for `CCn1c(=O)c2c(nc(/C=C/c3cc(F)cc(F)c3)n2C)n(CC)c1=O` [Compound 156, (E)-8-(3,5-Difluorostyryl)-1,3-diethyl-7-methylxanthine], the “MLD (minimum lethal dose)” value is reported as over 100 mg/kg.
